According to patent publication US10570129B2 (Zoetis Services LLC, priority 2015, dated 2020):

Assays:
Haemonchus contortus L3 = experiment: microbe, parasite or virus in culture; assay type: cell-based; conditions: Haemonchus contortus, 96 h, read-out: HcL3 Minimal Effective Concentration (MEC)
D. immitis microfilariae = experiment: Dirofilaria immitis, microfilariae (DiMF) in vitro motility assay; assay type: cell-based; conditions: Dirofilaria immitis, 72 h, read-out: DiMF minimally effective dose (MEC)

**Q.** Which results are given for `O=C(NCc1ccnc(F)c1)n1c2c(c3cc(-c4ccc(Cl)cc4)ccc31)CN(C/C=C/c1ccc(Cl)cc1)CC2` [Example 461, (E)-8-(4-chlorophenyl)-2-(3-(4-chlorophenyl)allyl)-N-((2-fluoropyridin-4-yl)methyl)-1,2,3,4-tetrahydro-5H-pyrido[4,3-b]indole-5-carboxamide]?
**A.** minimal effective concentration (Haemonchus contortus L3): 33 µM; minimal effective concentration (D. immitis microfilariae): > 100 µM

**Q.** What does the source list for `O=C(NCc1ccnc(Cl)c1)n1c2c(c3c(OC(F)(F)F)cccc31)CN(C/C=C/c1ccc(C(F)(F)F)cn1)CC2` [Example 343, (E)-N-((2-chloropyridin-4-yl)methyl)-9-(trifluoromethoxy)-2-(3-(5-(trifluoromethyl)pyridin-2-yl)allyl)-1,2,3,4-tetrahydro-5H-pyrido[4,3-b]indole-5-carboxamide]?
**A.** minimal effective concentration (Haemonchus contortus L3): 33 µM; minimal effective concentration (D. immitis microfilariae): 3.3 µM

**Q.** What does the source list for `O=C(NCc1ccnc(Cl)c1)n1c2c(c3cc(-n4ccccc4=O)ccc31)CN(C/C=C/c1ccc(Cl)cc1)CC2` [Example 500, (E)-2-(3-(4-chlorophenyl)allyl)-N-((2-chloropyridin-4-yl)methyl)-8-(2-oxopyridin-1 (2H)-yl)-1,2,3,4-tetrahydro-5H-pyrido[4,3-b]indole-5-carboxamide]?
**A.** minimal effective concentration (Haemonchus contortus L3): > 100 µM; minimal effective concentration (D. immitis microfilariae): 5.7 µM

**Q.** `O=C(NCc1ccnc(Cl)c1)n1c2c(c3cc(C(F)(F)F)ccc31)CN(C/C=C/c1ccc(F)c(F)c1)CC2` [Example 414, (E)-N-((2-chloropyridin-4-yl)methyl)-2-(3-(3,4-difluorophenyl)allyl)-8-(trifluoromethyl)-1,2,3,4-tetrahydro-5H-pyrido[4,3-b]indole-5-carboxamide] was tested. Which minimal effective concentration (Haemonchus contortus L3) did it give?
**A.** 1 µM

**Q.** And the minimal effective concentration (D. immitis microfilariae)?
**A.** 10 µM

**Q.** How did the minimal effective concentration (Haemonchus contortus L3) turn out when `N#Cc1ccc2c(c1)c1c(n2C(=O)NCc2ccnc(F)c2)CCN(C/C=C/c2cc(F)cc(F)c2)C1` [Example 117, (E)-8-cyano-2-(3-(3,5-difluorophenyl)allyl)-N-((2-fluoropyridin-4-yl)methyl)-1,2,3,4-tetrahydro-5H-pyrido[4,3-b]indole-5-carboxamide] was run?
**A.** 0.2 µM

**Q.** What about the minimal effective concentration (D. immitis microfilariae) of the same compound?
**A.** 1.8 µM

**Q.** For `O=C(NCc1ccnc(Cl)c1)n1c2c(c3cc(OC(F)(F)F)ccc31)CN(C/C=C/c1ccc(Cl)c(F)c1)CC2` [Example 384, (E)-2-(3-(4-chloro-3-fluorophenyl)allyl)-N-((2-chloropyridin-4-yl)methyl)-8-(trifluoromethoxy)-1,2,3,4-tetrahydro-5H-pyrido[4,3-b]indole-5-carboxamide], which minimal effective concentration (Haemonchus contortus L3) is on record?
**A.** 1 µM

**Q.** What about the minimal effective concentration (D. immitis microfilariae) of the same compound?
**A.** 18.2 µM

**Q.** `N#Cc1ccc(/C=C/CN2CCc3c(c4ccc(OC(F)(F)F)cc4n3C(=O)NCc3ccnc(Cl)c3)C2)cc1F` [Example 345, (E)-N-((2-chloropyridin-4-yl)methyl)-2-(3-(4-cyano-3-fluorophenyl)allyl)-7-(trifluoromethoxy)-1,2,3,4-tetrahydro-5H-pyrido[4,3-b]indole-5-carboxamide] was tested. Which minimal effective concentration (Haemonchus contortus L3) did it give?
**A.** 0.5 µM

**Q.** What about the minimal effective concentration (D. immitis microfilariae) of the same compound?
**A.** 18.2 µM

**Q.** What does the source list for `Cc1cccc2c1c1c(n2C(=O)NCc2ccnc(Cl)c2)CCN(C/C=C/c2ccc(Cl)cc2)C1` [Example 147, (E)-2-(3-(4-chlorophenyl)allyl)-N-((2-chloropyridin-4-yl)methyl)-9-methyl-1,2,3,4-tetrahydro-5H-pyrido[4,3-b]indole-5-carboxamide]?
**A.** minimal effective concentration (Haemonchus contortus L3): 2.8 µM; minimal effective concentration (D. immitis microfilariae): 10 µM

**Q.** How did the minimal effective concentration (Haemonchus contortus L3) turn out when `N#Cc1ccc2c(c1)c1c(n2C(=O)NCc2ccnc(Cl)c2)CCN(C/C=C/c2c(F)c(F)c(F)c(F)c2F)C1` [Example 83, (E)-N-((2-chloropyridin-4-yl)methyl)-8-cyano-2-(3-(perfluorophenyl)allyl)-1,2,3,4-tetrahydro-5H-pyrido[4,3-b]indole-5-carboxamide] was run?
**A.** 0.1 µM

**Q.** And the minimal effective concentration (D. immitis microfilariae)?
**A.** > 100 µM

**Q.** What does the source list for `N#Cc1ccc2c(c1)c1c(n2C(=O)NCc2ccnc(O)c2)CCN(C/C=C/c2ccc(Cl)c(Cl)c2)C1` [Example 449, (E)-8-cyano-2-(3-(3,4-dichlorophenyl)allyl)-N-((2-hydroxypyridin-4-yl)methyl)-1,2,3,4-tetrahydro-5H-pyrido[4,3-b]indole-5-carboxamide]?
**A.** minimal effective concentration (Haemonchus contortus L3): > 100 µM; minimal effective concentration (D. immitis microfilariae): > 100 µM

**Q.** Which results are given for `O=C(NCc1ccnc(Cl)c1)n1c2c(c3cc(F)c(Cl)cc31)CN(C/C=C/c1ccc(F)c(F)c1)CC2` [Example 300, (E)-7-chloro-N-((2-chloropyridin-4-yl)methyl)-2-(3-(3,4-difluorophenyl)-allyl)-8-fluoro-1,2,3,4-tetrahydro-5H-pyrido[4,3-b]indole-5-carboxamide]?
**A.** minimal effective concentration (Haemonchus contortus L3): 0.5 µM; minimal effective concentration (D. immitis microfilariae): 10 µM

**Q.** `O=C(NCc1ccnc(Cl)c1)n1c2c(c3cc(Cl)c(OC(F)(F)F)cc31)CN(C/C=C/c1ccc(Cl)cc1)CC2` [Example 499, (E)-8-chloro-2-(3-(4-chlorophenyl)allyl)-N-((2-chloropyridin-4-yl)methyl)-7-(trifluoromethoxy)-1,2,3,4-tetrahydro-5H-pyrido[4,3-b]indole-5-carboxamide] was tested. Which minimal effective concentration (Haemonchus contortus L3) did it give?
**A.** 1.8 µM

**Q.** What about the minimal effective concentration (D. immitis microfilariae) of the same compound?
**A.** > 100 µM

**Q.** How did the minimal effective concentration (Haemonchus contortus L3) turn out when `O=C(NCc1ccnc(F)c1)n1c2c(c3ccc(Cl)cc31)CN(C/C=C/c1ccc(Cl)c(F)c1)CC2` [Example 224, (E)-7-chloro-2-(3-(4-chloro-3-fluorophenyl)allyl)-N-((2-fluoropyridin-4-yl)methyl)-1,2,3,4-tetrahydro-5H-pyrido[4,3-b]indole-5-carboxamide] was run?
**A.** 1.8 µM

**Q.** And the minimal effective concentration (D. immitis microfilariae)?
**A.** 3.3 µM

**Q.** How did the minimal effective concentration (Haemonchus contortus L3) turn out when `O=C(NCc1ccnc(Cl)c1)n1c2c(c3ccc(OC(F)(F)F)cc31)CN(C/C=C/c1c(F)cc(F)cc1F)CC2` [Example 341, (E)-N-((2-chloropyridin-4-yl)methyl)-7-(trifluoromethoxy)-2-(3-(2,4,6-trifluorophenyl)allyl)-1,2,3,4-tetrahydro-5H-pyrido[4,3-b]indole-5-carboxamide] was run?
**A.** 3.3 µM

**Q.** And the minimal effective concentration (D. immitis microfilariae)?
**A.** 5.7 µM

**Q.** For `O=C(NCc1ccnc(F)c1)n1c2c(c3cc(Br)ccc31)CN(C/C=C/c1ccc(Cl)c(F)c1)CC2` [Example 188, (E)-8-bromo-2-(3-(4-chloro-3-fluorophenyl)allyl)-N-((2-fluoropyridin-4-yl)methyl)-1,2,3,4-tetrahydro-5H-pyrido[4,3-b]indole-5-carboxamide], which minimal effective concentration (Haemonchus contortus L3) is on record?
**A.** 0.3 µM

**Q.** What about the minimal effective concentration (D. immitis microfilariae) of the same compound?
**A.** 3.3 µM

**Q.** For `N#Cc1cc2c(cc1F)c1c(n2C(=O)NCc2ccnc(Cl)c2)CCN(C/C=C/c2ccc(F)cc2)C1` [Example 175, (E)-N-((2-chloropyridin-4-yl)methyl)-7-cyano-8-fluoro-2-(3-(4-fluorophenyl)allyl)-1,2,3,4-tetrahydro-5H-pyrido[4,3-b]indole-5-carboxamide], which minimal effective concentration (Haemonchus contortus L3) is on record?
**A.** 1.8 µM

**Q.** And the minimal effective concentration (D. immitis microfilariae)?
**A.** 10 µM

**Q.** Which minimal effective concentration (Haemonchus contortus L3) does the source give for `O=C(NCc1cnc(Cl)s1)n1c2c(c3c(Cl)cccc31)CN(C/C=C/c1ccc(Cl)cc1)CC2` [Example 231, (E)-9-chloro-2-(3-(4-chlorophenyl)allyl)-N-((2-chlorothiazol-5-yl)methyl)-1,2,3,4-tetrahydro-5H-pyrido[4,3-b]indole-5-carboxamide] here?
**A.** 3.3 µM

**Q.** And the minimal effective concentration (D. immitis microfilariae)?
**A.** 13.5 µM

**Q.** Which minimal effective concentration (Haemonchus contortus L3) does the source give for `N#Cc1ccc2c3c(n(C(=O)NCc4ccnc(Cl)c4)c2c1)CCN(C/C=C/c1ccc(F)cc1F)C3` [Example 26, (E)-N-((2-chloropyridin-4-yl)methyl)-7-cyano-2-(3-(2,4-difluorophenyl)allyl)-1,2,3,4-tetrahydro-5H-pyrido[4,3-b]indole-5-carboxamide] here?
**A.** 2.4 µM

**Q.** What about the minimal effective concentration (D. immitis microfilariae) of the same compound?
**A.** 5.7 µM

**Q.** Which results are given for `CSc1cc2c3c(n(C(=O)NCc4ccnc(Cl)c4)c2cc1C#N)CCN(C/C=C/c1ccc(Cl)cc1)C3` [Example 491, (E)-2-(3-(4-chlorophenyl)allyl)-N-((2-chloropyridin-4-yl)methyl)-7-cyano-8-(methylthio)-1,2,3,4-tetrahydro-5H-pyrido[4,3-b]indole-5-carboxamide]?
**A.** minimal effective concentration (Haemonchus contortus L3): 1 µM; minimal effective concentration (D. immitis microfilariae): 18.2 µM

**Q.** With `O=C(NCc1ccnc(Cl)c1)n1c2c(c3cc(Cl)c(Cl)cc31)CN(C/C=C/c1ccc(F)c(Cl)c1)CC2` [Example 277, (E)-7,8-dichloro-2-(3-(3-chloro-4-fluorophenyl)allyl)-N-((2-chloropyridin-4-yl)methyl)-1,2,3,4-tetrahydro-5H-pyrido[4,3-b]indole-5-carboxamide] as the compound, how does the minimal effective concentration (Haemonchus contortus L3) read?
**A.** 1 µM

**Q.** What about the minimal effective concentration (D. immitis microfilariae) of the same compound?
**A.** > 100 µM

**Q.** What does the source list for `O=C(NCc1ccnc(Cl)c1)n1c2c(c3ccc(C(F)(F)F)cc31)CN(C/C=C/c1ccc(F)cc1)CC2` [Example 160, (E)-N-((2-chloropyridin-4-yl)methyl)-2-(3-(4-fluorophenyl)allyl)-7-(trifluoromethyl)-1,2,3,4-tetrahydro-5H-pyrido[4,3-b]indole-5-carboxamide]?
**A.** minimal effective concentration (Haemonchus contortus L3): 1.8 µM; minimal effective concentration (D. immitis microfilariae): 10 µM

**Q.** Which minimal effective concentration (D. immitis microfilariae) does the source give for `COc1cc(CNC(=O)n2c3c(c4cc(C#N)ccc42)CN(C/C=C/c2cc(F)c(F)c(F)c2)CC3)ccn1` [Example 63, (E)-8-cyano-N-((2-methoxypyridin-4-yl)methyl)-2-(3-(3,4,5-trifluorophenyl)allyl)-1,2,3,4-tetrahydro-5H-pyrido[4,3-b]indole-5-carboxamide] here?
**A.** 0.3 µM

**Q.** How did the minimal effective concentration (D. immitis microfilariae) turn out when `COc1cc(CNC(=O)n2c3c(c4cc(C#N)ccc42)CN(C/C=C/c2ccc(F)cc2F)CC3)ccn1` [Example 67, (E)-8-cyano-2-(3-(2,4-difluorophenyl)allyl)-N-((2-methoxypyridin-4-yl)methyl)-1,2,3,4-tetrahydro-5H-pyrido[4,3-b]indole-5-carboxamide] was run?
**A.** 0.01 µM

**Q.** Which minimal effective concentration (D. immitis microfilariae) does the source give for `COc1cc(CNC(=O)n2c3c(c4cc(C#N)ccc42)CN(C/C=C/c2ccc(Br)cc2F)CC3)ccn1` [Example 66, (E)-2-(3-(4-bromo-2-fluorophenyl)allyl)-8-cyano-N-((2-methoxypyridin-4-yl)methyl)-1,2,3,4-tetrahydro-5H-pyrido[4,3-b]indole-5-carboxamide] here?
**A.** > 100 µM

**Q.** Which minimal effective concentration (D. immitis microfilariae) does the source give for `COc1cc(CNC(=O)n2c3c(c4cc(C#N)ccc42)CN(C/C=C/c2ccc(Cl)cc2Cl)CC3)ccn1` [Example 65, (E)-8-cyano-2-(3-(2,4-dichlorophenyl)allyl)-N-((2-methoxypyridin-4-yl)methyl)-1,2,3,4-tetrahydro-5H-pyrido[4,3-b]indole-5-carboxamide] here?
**A.** > 100 µM
